Key:
Format in all cases: functional
[1] = test system: Acinetobacter baumannii; assay: Antibacterial activity against Acinetobacter baumannii 4052 assessed as reduction in microbial growth incubated for 16 hrs by broth microdilution method
[2] = test system: Acinetobacter baumannii; assay: Potentiation of clarithromycin-induced antibacterial activity against Acinetobacter baumannii 4025 assessed as fold reduction in clarithromycin MIC at 7.5 uM incubated for 16 hrs by broth microdilution method
[3] = test system: Acinetobacter baumannii; assay: Potentiation of clarithromycin-induced antibacterial activity against Acinetobacter baumannii 5256 assessed as fold reduction in clarithromycin MIC at 7.5 uM incubated for 16 hrs by broth microdilution method
[4] = test system: Acinetobacter baumannii; assay: Potentiation of clarithromycin-induced antibacterial activity against Acinetobacter baumannii 5711 assessed as fold reduction in clarithromycin MIC at 7.5 uM incubated for 16 hrs by broth microdilution method
[5] = test system: Acinetobacter baumannii; assay: Potentiation of clarithromycin-induced antibacterial activity against Acinetobacter baumannii AB5075 assessed as fold reduction in clarithromycin MIC at 5 uM incubated for 16 hrs in presence of clarithromycin by broth microdilution method
[6] = test system: Acinetobacter baumannii; assay: Antibacterial activity against Acinetobacter baumannii 4269 assessed as reduction in microbial growth incubated for 16 hrs by broth microdilution method
[7] = test system: Acinetobacter baumannii; assay: Antibacterial activity against Acinetobacter baumannii 4025 assessed as reduction in microbial growth incubated for 16 hrs by broth microdilution method
[8] = test system: Acinetobacter baumannii; assay: Potentiation of clarithromycin-induced antibacterial activity against Acinetobacter baumannii 4026 assessed as fold reduction in clarithromycin MIC at 7.5 uM incubated for 16 hrs by broth microdilution method
[9] = test system: Acinetobacter baumannii; assay: Potentiation of clarithromycin-induced antibacterial activity against Acinetobacter baumannii 4857 assessed as fold reduction in clarithromycin MIC at 7.5 uM incubated for 16 hrs by broth microdilution method
[10] = test system: Acinetobacter baumannii; assay: Potentiation of clarithromycin-induced antibacterial activity against Acinetobacter baumannii 5197 assessed as fold reduction in clarithromycin MIC at 7.5 uM incubated for 16 hrs by broth microdilution method
[11] = test system: Acinetobacter baumannii; assay: Potentiation of clarithromycin-induced antibacterial activity against Acinetobacter baumannii 4269 assessed as fold reduction in clarithromycin MIC at 7.5 uM incubated for 16 hrs by broth microdilution method
[12] = test system: Acinetobacter baumannii; assay: Antibacterial activity against Acinetobacter baumannii 5711 assessed as reduction in microbial growth incubated for 16 hrs by broth microdilution method
[13] = test system: Acinetobacter baumannii; assay: Potentiation of clarithromycin-induced antibacterial activity against Acinetobacter baumannii AB5075 assessed as clarithromycin MIC at 5 uM incubated for 16 hrs by broth microdilution method (reference value: […] ug/ml)
[14] = test system: Acinetobacter baumannii; assay: Antibacterial activity against Acinetobacter baumannii 4490 assessed as reduction in microbial growth incubated for 16 hrs by broth microdilution method
[15] = test system: Acinetobacter baumannii; assay: Antibacterial activity against Acinetobacter baumannii 5001 assessed as reduction in microbial growth incubated for 16 hrs by broth microdilution method
[16] = test system: Acinetobacter baumannii; assay: Antibacterial activity against Acinetobacter baumannii 4991 assessed as reduction in microbial growth incubated for 16 hrs by broth microdilution method
[17] = test system: Acinetobacter baumannii; assay: Antibacterial activity against Acinetobacter baumannii 4878 assessed as reduction in microbial growth incubated for 16 hrs by broth microdilution method
[18] = test system: Acinetobacter baumannii; assay: Antibacterial activity against Acinetobacter baumannii 4027 assessed as reduction in microbial growth incubated for 16 hrs by broth microdilution method
[19] = test system: Acinetobacter baumannii; assay: Antibacterial activity against Acinetobacter baumannii 4498 assessed as reduction in microbial growth incubated for 16 hrs by broth microdilution method
[20] = test system: Acinetobacter baumannii; assay: Potentiation of clarithromycin-induced antibacterial activity against Acinetobacter baumannii AB5075 assessed as clarithromycin MIC at 7.5 uM incubated for 16 hrs by broth microdilution method (reference value: […] ug/ml)
[21] = test system: Acinetobacter baumannii; assay: Antibacterial activity against Acinetobacter baumannii 3785 assessed as reduction in microbial growth incubated for 16 hrs by broth microdilution method
[22] = test system: Acinetobacter baumannii; assay: Potentiation of clarithromycin-induced antibacterial activity against Acinetobacter baumannii 4456 assessed as fold reduction in clarithromycin MIC at 7.5 uM incubated for 16 hrs by broth microdilution method
[23] = test system: Acinetobacter baumannii; assay: Antibacterial activity against Acinetobacter baumannii 5256 assessed as reduction in microbial growth incubated for 16 hrs by broth microdilution method
[24] = test system: Acinetobacter baumannii; assay: Potentiation of clarithromycin-induced antibacterial activity against Acinetobacter baumannii 4052 assessed as fold reduction in clarithromycin MIC at 7.5 uM incubated for 16 hrs by broth microdilution method
[25] = test system: Acinetobacter baumannii; assay: Potentiation of clarithromycin-induced antibacterial activity against Acinetobacter baumannii 3806 assessed as fold reduction in clarithromycin MIC at 7.5 uM incubated for 16 hrs by broth microdilution method
[26] = test system: Acinetobacter baumannii; assay: Antibacterial activity against Acinetobacter baumannii 4795 assessed as reduction in microbial growth incubated for 16 hrs by broth microdilution method
[27] = test system: Acinetobacter baumannii; assay: Potentiation of clarithromycin-induced antibacterial activity against Acinetobacter baumannii 4027 assessed as fold reduction in clarithromycin MIC at 7.5 uM incubated for 16 hrs by broth microdilution method
[28] = test system: Acinetobacter baumannii; assay: Antibacterial activity against Acinetobacter baumannii AB5075 assessed as reduction in microbial growth incubated for 16 hrs by broth microdilution method
[29] = test system: Acinetobacter baumannii; assay: Potentiation of clarithromycin-induced antibacterial activity against Acinetobacter baumannii 3785 assessed as fold reduction in clarithromycin MIC at 7.5 uM incubated for 16 hrs by broth microdilution method
[30] = test system: Acinetobacter baumannii; assay: Antibacterial activity against Acinetobacter baumannii 3927 assessed as reduction in microbial growth incubated for 16 hrs by broth microdilution method
[31] = test system: Acinetobacter baumannii; assay: Potentiation of clarithromycin-induced antibacterial activity against Acinetobacter baumannii 3560 assessed as fold reduction in clarithromycin MIC at 7.5 uM incubated for 16 hrs by broth microdilution method
[32] = test system: Acinetobacter baumannii; assay: Antibacterial activity against Acinetobacter baumannii 3806 assessed as reduction in microbial growth incubated for 16 hrs by broth microdilution method
[33] = test system: Acinetobacter baumannii; assay: Potentiation of clarithromycin-induced antibacterial activity against Acinetobacter baumannii 4878 assessed as fold reduction in clarithromycin MIC at 7.5 uM incubated for 16 hrs by broth microdilution method
[34] = test system: Acinetobacter baumannii; assay: Antibacterial activity against Acinetobacter baumannii 3560 assessed as reduction in microbial growth incubated for 16 hrs by broth microdilution method
[35] = test system: Acinetobacter baumannii; assay: Potentiation of clarithromycin-induced antibacterial activity against Acinetobacter baumannii 5001 assessed as fold reduction in clarithromycin MIC at 7.5 uM incubated for 16 hrs by broth microdilution method
[36] = test system: Acinetobacter baumannii; assay: Potentiation of clarithromycin-induced antibacterial activity against Acinetobacter baumannii 4957 assessed as fold reduction in clarithromycin MIC at 7.5 uM incubated for 16 hrs by broth microdilution method
[37] = test system: Acinetobacter baumannii; assay: Potentiation of clarithromycin-induced antibacterial activity against Acinetobacter baumannii 3927 assessed as fold reduction in clarithromycin MIC at 7.5 uM incubated for 16 hrs by broth microdilution method
[38] = test system: Acinetobacter baumannii; assay: Antibacterial activity against Acinetobacter baumannii 4448 assessed as reduction in microbial growth incubated for 16 hrs by broth microdilution method
[39] = test system: Acinetobacter baumannii; assay: Antibacterial activity against Acinetobacter baumannii 4957 assessed as reduction in microbial growth incubated for 16 hrs by broth microdilution method
[40] = test system: Acinetobacter baumannii; assay: Antibacterial activity against Acinetobacter baumannii 4857 assessed as reduction in microbial growth incubated for 16 hrs by broth microdilution method
[41] = test system: Acinetobacter baumannii; assay: Antibacterial activity against Acinetobacter baumannii 4456 assessed as reduction in microbial growth incubated for 16 hrs by broth microdilution method

In the case of `Cl.Nc1nc(-c2ccc(NC(=O)Nc3cc(Br)cc(Br)c3)cc2)c[nH]1`, the MIC [1] is reported as 25 µM, the “fold change (FC)” value [2] is reported as 16 and the “fold change (FC)” value [3] is reported as 16. The “fold change (FC)” value [4] was 16, the “fold change (FC)” value [5] was 8 and the MIC [6] was 25 µM. The MIC [7] was 25 µM, the “fold change (FC)” value [8] was 16 and the “fold change (FC)” value [9] was 16. The “fold change (FC)” value [10] was 16, the “fold change (FC)” value [11] was 16 and the MIC [12] was 25 µM. For the same compound, the MIC [13] was 4 µg/mL, the MIC [14] was 25 µM and the MIC [15] was 25 µM. The MIC [16] was 25 µM, the MIC [17] was 25 µM and the MIC [18] was 25 µM. The MIC [19] was 25 µM, the MIC [20] was 0.25 µg/mL and the MIC [21] was 25 µM. For the same compound, the “fold change (FC)” value [22] was 16, the MIC [23] was 25 µM and the “fold change (FC)” value [24] was 16. The “fold change (FC)” value [25] was 16, the MIC [26] was 25 µM and the “fold change (FC)” value [27] was 16. The MIC [28] was 50 µM, the “fold change (FC)” value [29] was 16 and the MIC [30] was 25 µM. The “fold change (FC)” value [31] was 16, the MIC [32] was 25 µM and the “fold change (FC)” value [33] was 16. The MIC [34] was 25 µM, the “fold change (FC)” value [35] was 16 and the “fold change (FC)” value [36] was 16. The “fold change (FC)” value [37] was 16, the MIC [38] was 25 µM and the MIC [39] was 25 µM. For the same compound, the MIC [40] was 25 µM and the MIC [41] was 25 µM.

Reference: ChEMBL document CHEMBL4725412, “Augmenting the Activity of Macrolide Adjuvants against Acinetobacter baumannii” (2020)
